Measured values from PMC5354670, “Blockade of the malignant phenotype by β-subunit selective noncovalent inhibition of immuno- and constitutive proteasomes” (Oncotarget, 2017).

Legend:
[1] = target: human constitutive 20S proteasome cCP, PA activity (β1) (Homo sapiens, UniProt P28072); assay: Inhibition of PA activity of human cCP (substrate Z-LLE-βNA); conditions: for inhibition at 50 µM: pH 8, read-out: % inhibition at 50 μM PA, cCP
Procedure: (§7) They were assayed for in vitro inhibition of purified human cCP and iCP by measuring the hydrolysis of the β5 (ChT-L) substrate Suc-LLVY-AMC, β1 (PA) substrate Z-LLE-βNA, and β2 (T-L) substrate Boc-LRR-AMC in the presence of various concentrations of the tested molecules.
(§8) The experimental data are adjusted to equation 1 (c) or equation 2 (a, a’, b, b’, c’).
(§9) Purified human constitutive 20S proteasome cCP and human 20S immunoproteasome iCP from erythrocyte were obtained from Boston Biochem (Cambridge, USA). All fluorogenic substrates (Suc-LLVY-AMC, Boc-LRR-AMC, and Z-LLE-βNA) were obtained from Bachem (Weil am Rhein, Germany). […] Fluorescence was measured using a BMG Fluostar microplate reader (black 96-well microplates).
(§10) Substrates and compounds were previously dissolved in DMSO. The buffers were (pH 8.0): 20 mM Tris, 10% (v/v) glycerol, 0.01% (w/v) SDS, and 2% (v/v) DMSO (ChT-L and PA activities); 20 mM Tris, 10% (v/v) glycerol, 0.01% (w/v). The final iPR and cPR concentrations were 0.3 nM using 20 μM Suc-LLVY-AMC (ChT-L), 50 μM Boc-LRR-AMC (T-L) and 100 μM Z-LLE-βNA (PA). […] The enzyme and the inhibitors were incubated for 15 min before the measurement of the enzyme activity. Initial rates determined in control experiments (V0) were considered to be 100 % of the peptidase activity; initial rates (Vi) that were above 100 % in the presence of a tested compound were considered to be activations (expressed as activation factor), while initial rates below 100 % were considered to be inhibitions. […] The values of IC50 were calculated by fitting the experimental data to the equation 1 or equation 2, where nH is the Hill number.

[2] = target: human constitutive 20S proteasome cCP, T-L activity (β2) (Homo sapiens, UniProt Q99436); assay: Inhibition of T-L activity of human cCP (substrate Boc-LRR-AMC); conditions: for inhibition at 50 µM: pH 8, read-out: % inhibition at 50 μM T-L, cCP; for fold induction at 50 µM: pH 8, read-out: x (activation factor) at 50 μM T-L, cCP
Procedure: as §7, §8, §9, §10

[3] = target: human 20S immunoproteasome iCP, PA activity (β1) (Homo sapiens, UniProt P28065); assay: Inhibition of PA activity of human iCP (substrate Z-LLE-βNA); conditions: for ratio cCP/iCP, PA activity: IC50 cCP / IC50 iCP; for inhibition at 50 µM: pH 8, read-out: % inhibition at 50 μM PA, iCP
Procedure: as §7, §8, §9, §10

[4] = target: human 20S immunoproteasome iCP, T-L activity (β2) (Homo sapiens, UniProt P40306); assay: Inhibition of T-L activity of human iCP (substrate Boc-LRR-AMC); conditions: for fold induction at 50 µM: pH 8, read-out: x (activation factor) at 50 μM T-L, iCP
Procedure: We decided to explore further their properties by testing their potential to inhibit human iCP versus cCP. They were assayed for in vitro inhibition of purified human cCP and iCP by measuring the hydrolysis of the β5 (ChT-L) substrate Suc-LLVY-AMC, β1 (PA) substrate Z-LLE-βNA, and β2 (T-L) substrate Boc-LRR-AMC in the presence of various concentrations of the tested molecules.
as §8
Purified human constitutive 20S proteasome cCP and human 20S immunoproteasome iCP from erythrocyte were obtained from Boston Biochem (Cambridge, USA). All fluorogenic substrates (Suc-LLVY-AMC, Boc-LRR-AMC, and Z-LLE-βNA) were obtained from Bachem (Weil am Rhein, Germany). Other reagents and solvents were purchased from commercial sources. Fluorescence was measured using a BMG Fluostar microplate reader (black 96-well microplates).
as §10

[5] = target: human 20S immunoproteasome iCP, ChT-L activity (β5) (Homo sapiens, UniProt P28062); assay: Inhibition of ChT-L activity of human iCP (substrate Suc-LLVY-AMC); conditions: for ratio cCP/iCP, ChT-L activity: IC50 cCP / IC50 iCP; for inhibition at 50 µM: pH 8, read-out: % inhibition at 50 μM ChT-L, iCP
Procedure: as §7, §8, §9, §10

[6] = target: human constitutive 20S proteasome cCP, ChT-L activity (β5) (Homo sapiens, UniProt P28074); assay: Inhibition of ChT-L activity of human cCP (substrate Suc-LLVY-AMC); conditions: for factor by which ChT-L activity of cCP is more efficiently inhibited than PA: PA vs ChT-L; for inhibition at 50 µM: pH 8, read-out: % inhibition at 50 μM ChT-L, cCP
Procedure: as §7, §8, §9, §10

[7] = system: MDA-MB-231 cells (breast cancer); assay: MTT cell viability assay, MDA-MB-231; assay type: cell-based; conditions: for cytotoxicity at higher doses: 48 h; for CC50: Homo sapiens, 48 h treatment, MTT, read-out: LC50 (the source's name)
Procedure: (§1) We first analyzed the cytotoxic effects of B1f and B3 treatment on colon (CT-26) and breast cancer cells (MDA-MB-231 cells) using the MTT cell viability assay. B1f and B3 inhibited the viability of these cells in a dose-dependent manner after 48 h treatment. Higher doses of B1f and B3 lead to 100% cytotoxicity (Figure 4A). […] We next assessed the effect of B1f and B3 on the proliferation of these cells during 24h. […] Similarly, to evaluate whether these inhibitors can affect their invasion, tumor cells were incubated for 24 h in a microchemotaxis chamber pre-coated with collagen IV (Figure 4C) in the presence of the compounds B1f or B3.
(§2) Figure 4 Effect of compounds B1f and B3 on tumor cell proliferation and invasion A. CT-26 and MDA-MB 231 cells were treated with various concentrations of indicated compounds for 48h and cells viability was measured by MTT assay. B. Tumor cells were serum deprived overnight and then treated for 24 h with control media (None) or media containing compound B3 or B1f. Cell proliferation was assessed using Cell Titer96 non-radioactive cell proliferation assay. Results are shown as means ± S.E. of three experiments performed in triplicate. *P < 0.05. **P < 0.001. *** P < 0.0001. C. Indicated tumor cells were incubated in a microchemotaxis chamber pre-coated with collagen IV for cell invasion assay as described in the Materials and Methods section. The results are represented as the percentage of invading cells. Data are representative of 3 experiments and shown as mean ± S.E. (n=3 per group). **P < 0.001. *** P < 0.0001.
(§3) For the viability assay, CT-26 (colon cancer) and MDA-MB231 (breast cancer) cells were plated in triplicate on 96 wells plate (5.10^3/well). After treatment with indicated drugs, cells were incubated for 48 hours at 37°C and incubated with solution of 5 mg/ml of 3-(4,5-dimethylthiazol-2-yl)-2,5-diphenyltetrazolium bromide (MTT) tetrazolium substrate (Sigma) for 30 minutes at 37°C prior analysis on a microplate reader at 570. The LC50 value was defined as the drug concentration causing 50% cell death (LD = lethal dose) compared to growth of the untreated control cells. For cell proliferation, cells were plated in triplicate on 96 wells plate (5.10^3/well) under serum free conditions for 24 h. The starved cells were then incubated for 24h with fresh media containing the two selected compounds B1f and B3 that inhibit both ChT-L and PA activities of iCP and cCP. […] Proliferation level in cells was evaluated, as reported previously using the Cell Titer96 non-radioactive cell proliferation assay kit (Promega) according to manufacturer’s protocol

[8] = system: CT-26 cells (colon cancer); assay: MTT cell viability assay, CT-26; assay type: cell-based; conditions: for cytotoxicity at higher doses: CT-26 cells, 48 h; for CC50: Mus musculus, CT26 cells, 48 h treatment, MTT, read-out: LC50 (the source's name)
Procedure: as §1, §2, §3

[9] = system: CT-26 cells (colon cancer); assay: Cell Titer96 non-radioactive cell proliferation assay, CT-26; assay type: cell-based; conditions: 10 μM, 24 h, vs control cells
Procedure: as §1
(§4) Figure 4 Effect of compounds B1f and B3 on tumor cell proliferation and invasion A. CT-26 and MDA-MB 231 cells were treated with various concentrations of indicated compounds for 48h and cells viability was measured by MTT assay. […] Cell proliferation was assessed using Cell Titer96 non-radioactive cell proliferation assay. […]
(§5) For the viability assay, CT-26 (colon cancer) and MDA-MB231 (breast cancer) cells were plated in triplicate on 96 wells plate (5.10^3/well). After treatment with indicated drugs, cells were incubated for 48 hours at 37°C and incubated with solution of 5 mg/ml of 3-(4,5-dimethylthiazol-2-yl)-2,5-diphenyltetrazolium bromide (MTT) tetrazolium substrate (Sigma) for 30 minutes at 37°C prior analysis on a microplate reader at 570. […]

[10] = system: MDA-MB-231 cells (breast cancer); assay: Cell Titer96 non-radioactive cell proliferation assay, MDA-MB-231; assay type: cell-based; conditions: 10 μM, 24 h, vs control cells
Procedure: as §1, §4, §5

[11] = system: CT-26 cells (colon cancer); assay: Cell invasion assay, microchemotaxis chamber pre-coated with collagen IV, CT-26; assay type: cell-based; conditions: 10 μM, 24 h
Procedure: as §1, §4
(§6) Cell invasion were determined using 24-well microchemotaxis chambers precoated with 7.5 μg collagen type IV (Becton Dickinson Labware), as previously described. […] Cell invasion were quantified by determination of the number of cells that migrated directly through the membrane toward the medium containing 10% serum that was used as a chemoattractant. […]

[12] = system: MDA-MB-231 cells (breast cancer); assay: Cell invasion assay, microchemotaxis chamber pre-coated with collagen IV, MDA-MB-231; assay type: cell-based; conditions: 10 μM, 24 h
Procedure: as §1, §4, §6

In the case of `O=[N+]([O-])c1ccc(N2CCN(S(=O)(=O)c3ccc4ccccc4c3)CC2)cc1SCCN1CCOCC1` [Compound B2a], the IC50 [1] is reported as 31.2 ± 1 µM and the inhibition at 50 µM [2] is reported as less than 25%.
For `Cc1ccc(S(=O)(=O)N2CCN(c3ccc([N+](=O)[O-])c(SCc4ccco4)c3)CC2)cc1` [Compound B1e], the IC50 [3] was 3.3 ± 0.3 µM, the “ratio cCP/iCP, PA activity” value [3] was 1.3 and the IC50 [1] was 4.2 µM. The fold induction at 50 µM [4] was 3, the inhibition at 50 µM [2] was less than 25% and the IC50 [5] was 5.5 ± 0.3 µM. The “ratio cCP/iCP, ChT-L activity” value [5] was 0.55, the IC50 [6] was 2.5 µM and the “factor by which ChT-L activity of cCP is more efficiently inhibited than PA” value [6] was 1.7.
Compound `O=[N+]([O-])c1ccc(N2CCN(S(=O)(=O)Cc3ccccc3)CC2)cc1NCCN1CCOCC1` [Compound B4] has an inhibition at 50 µM [1] of less than 25%, an inhibition at 50 µM [2] of less than 25% and an inhibition at 50 µM [6] of less than 25%.
In the case of `CC(C)(C)c1ccc(S(=O)(=O)N2CCN(c3ccc(Cl)cc3[N+](=O)[O-])CC2)cc1` [Compound B1c], the inhibition at 50 µM [3] is reported as less than 25%, the inhibition at 50 µM [1] is reported as less than 25% and the IC50 [4] is reported as 3.3 ± 0.4 µM. For the same compound, the “cCP/iCP ratio for the IC50 values, T-L activity” value (“cCP/iCP ratio” below) [4] was 2.4, the IC50 [2] was 8.1 µM and the inhibition at 50 µM [5] was less than 25%. The inhibition at 50 µM [6] was less than 25%.
In the case of `CC(C)Cc1ccc(S(=O)(=O)N2CCN(c3ccc([N+](=O)[O-])cc3)CC2)cc1` [Compound B1a], the inhibition at 50 µM [3] is reported as 25%, the inhibition at 50 µM [1] is reported as less than 25% and the “cCP/iCP ratio” value [4] is reported as 1.4. The IC50 [2] was 10.3 µM, the inhibition at 50 µM [5] was less than 25% and the inhibition at 50 µM [6] was less than 25%.
For `Cc1ccccc1N1CCN(S(=O)(=O)c2ccc(C(C)(C)C)cc2)CC1` [Compound B1b], the inhibition at 50 µM [3] was less than 25%, the inhibition at 50 µM [1] was less than 25% and the IC50 [4] was 2.6 ± 0.4 µM. For the same compound, the “cCP/iCP ratio” value [4] was 4.6, the IC50 [2] was 12 µM and the inhibition at 50 µM [5] was less than 25%. For the same compound, the inhibition at 50 µM [6] was less than 25%.
Work on `CC(C)(C)c1ccc(S(=O)(=O)N2CCN(c3ccc([N+](=O)[O-])c(NCc4ccccn4)c3)CC2)cc1` [Compound B1g] yielded an IC50 [1] of 13.9 ± 1.4 µM, an inhibition at 50 µM [2] of less than 25% and an IC50 [6] of 24.6 ± 3.5 µM.
`O=[N+]([O-])c1ccc(N2CCN(S(=O)(=O)c3ccc(Cl)cc3)CC2)cc1SCc1ccco1` [Compound B1f] was tested, and the “cytotoxicity at higher doses” value [7] was 100%, the CC50 [7] was 45.8 ± 5.2 µM and the “cytotoxicity at higher doses” value [8] was 100%. For the same compound, the CC50 [8] was 24.4 ± 8.6 µM, the effect on proliferation [9] was “significant reduction in their proliferation” and the effect on proliferation [10] was “significant reduction in their proliferation”. The effect on invasion [11] was “clearly decreased their ability to invade”, the effect on invasion [12] was “clearly decreased their ability to invade” and the IC50 [3] was 3.7 ± 0.2 µM. The “ratio cCP/iCP, PA activity” value [3] was 2, the IC50 [1] was 7.4 µM and the fold induction at 50 µM [4] was 3. For the same compound, the inhibition at 50 µM [2] was less than 25%, the IC50 [5] was 5.8 ± 0.2 µM and the “ratio cCP/iCP, ChT-L activity” value [5] was 0.45. The IC50 [6] was 3.2 µM and the “factor by which ChT-L activity of cCP is more efficiently inhibited than PA” value [6] was 2.3.
`COc1ccc(S(=O)(=O)N2CCN(c3ccc([N+](=O)[O-])c(NCC(C)(C)C)c3)CC2)cc1OC` [Compound B1i] showed an inhibition at 50 µM [1] of less than 25%, an inhibition at 50 µM [2] of less than 25% and an inhibition at 50 µM [6] of less than 25%.
With `O=[N+]([O-])c1ccc(N2CCN(S(=O)(=O)c3ccc4ccccc4c3)CC2)cc1` [Compound B2b] the inhibition at 50 µM [1] was 50%, the fold induction at 50 µM [2] was 4.5 and the inhibition at 50 µM [6] was 58.9%.
`CC(=O)Nc1ccc(S(=O)(=O)N2CCN(c3ccc([N+](=O)[O-])c(NCCN4CCOCC4)c3)CC2)cc1` [Compound B1h] was tested, and the inhibition at 50 µM [1] was 45% and the inhibition at 50 µM [2] was less than 25%.
In the case of `O=[N+]([O-])c1ccc(N2CCN(S(=O)(=O)c3ccc(Cl)cc3)CC2)cc1Sc1ccccn1` [Compound B1d], the inhibition at 50 µM [1] is reported as 46%, the fold induction at 50 µM [2] is reported as 4.7 and the inhibition at 50 µM [6] is reported as less than 25%.
`O=C(COc1ccc2ccccc2c1)N1CCN(S(=O)(=O)c2ccc([N+](=O)[O-])cc2)CC1` [Compound B3] was tested, and the “cytotoxicity at higher doses” value [7] was 100%, the CC50 [7] was 15.4 ± 4.7 µM and the “cytotoxicity at higher doses” value [8] was 100%. For the same compound, the CC50 [8] was 26.4 ± 1.7 µM, the effect on proliferation [9] was “significant reduction in their proliferation” and the effect on proliferation [10] was “significant reduction in their proliferation”. For the same compound, the effect on invasion [11] was “clearly decreased their ability to invade”, the effect on invasion [12] was “clearly decreased their ability to invade” and the IC50 [3] was 7.1 ± 0.2 µM. For the same compound, the IC50 [1] was 8.1 µM, the inhibition at 50 µM ([4]; pH 8, read-out: % inhibition at 50 μM T-L, iCP) was less than 25% and the inhibition at 50 µM [2] was less than 25%. For the same compound, the IC50 [5] was 6.7 ± 0.2 µM and the IC50 [6] was 6.5 µM.
